We go through 23 compounds from patent US5750550A, “2-(pyrazol-5-yl-oxymethyl)-1,2-benzisothiazol-3 (2H)-One 1, 1-dioxides and compositions and method of use thereof” (Sanofi, priority 1995, dated 1998).

Each structure is given as a SMILES string.

The target in this assay is T1, human leukocyte elastase (Homo sapiens, UniProt P08246).
T1 sequence (P08246 30-267): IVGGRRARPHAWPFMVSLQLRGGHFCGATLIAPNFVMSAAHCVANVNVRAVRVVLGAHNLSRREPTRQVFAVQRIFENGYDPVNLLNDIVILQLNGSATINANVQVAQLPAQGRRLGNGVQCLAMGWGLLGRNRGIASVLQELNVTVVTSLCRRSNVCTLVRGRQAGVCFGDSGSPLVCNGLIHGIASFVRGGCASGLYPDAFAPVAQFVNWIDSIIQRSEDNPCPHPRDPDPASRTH
Put plainly: human leukocyte elastase (HLE) inhibitory activity, substrate MeOSuc-Ala-Ala-Pro-Val-pNA. The format is biochemical. The note with it: pH 7.8, 25° C., steady-state velocities. As to the method: The test compound (inhibitor) is dissolved in DMSO in a vial to produce an inhibitor stock solution which has a concentration in the range of 200-1000 μM. The inhibitor stock solution is diluted (1:4, 1:16 and 1:64) into assay vials (vials 1, 2 and 3 respectively) containing 2.4 mL of buffer solution (50 mM N-[2-hydroxyethyl] piperazine-N'-[2-ethanesulfonic acid]/NaOH, 500 mM NaCl, pH 7.8 at 25° C.) and DMSO is added so that the total volume in each vial is 3.2 mL. 70 μL, 50 μL, 35 μL and 25 μL of inhibitor from assay vial 1 is placed into the first four wells of a 96-well microtiter plate and each well is made up to 90 μL total volume with the addition of a 25% DMSO/buffer solution. The inhibitor from assay vials 2 and 3 is processed in a similar manner and placed in wells 5-12 respectively to afford a total of 12 different inhibitor concentrations. Four wells (wells 13-16) containing 90 μL of the 25% DMSO/buffer solution but no inhibitor are also run simultaneously with the inhibited wells as a control. 150 μL of substrate solution (prepared by the addition of 500 μL of the human leukocyte elastase (HLE) substrate MeOSuc-Ala-Ala-Pro-Val-pNA (18.7 mM in DMSO) to 19.5 mL of buffer solution) is then added simultaneously into each of the 16 wells and the solution in each well was thoroughly mixed.
The 96-well microtiter plate is placed into a Microplate Reader #89815A spectrophotometer and 110 μL of the enzyme solution (prepared as follows: a mixture of 20 mL of buffer solution and 20 mg of bovine serum albumen is gently vortexed in a scintillation vial and 5 μL HLE stock solution (1 mg/mL dissolved in deionized water) is added) is added simultaneously to each of the 16 wells. Each of the solutions in the wells is throughly mixed and then the time-dependent absorbance data is collected at an absorbance of 410 nm until the assay is complete. It should be noted that although this assay method can be done manually, it is preferred to perform the assay robotically using a Hewlett Packard MicroAssay System Robot. the absorbance versus time data thus obtained affords curves the final slope of which is equal to the final steady-statevelocities (VF). Using the program ENZFITTER (Elsevier software), the progress curves for the four control assays ([I]=0 are fit by linear regression to yield the enzyme reaction velocity values in the absences of inhibitor (Vo) which are averaged to produce a single fixed value. The inhibition constant Ki (nM) is then obtained from a plot of [formula] which affords a linear plot wherein: [formula] and [S] is the concentration of the substrate and Km is the Michaelis constant.
Table I summarizes the results obtained from the testing of compounds of the invention for human leukocyte elastase inhibitory activity.
Consider `COc1cc(C(C)C)c2c(c1)S(=O)(=O)N(COc1cc(-c3ccccc3)nn1C)C2=O` [2 (b), 4-isopropyl-6-methoxy-2-(1-methyl-3-phenylpyrazol-5-yl-oxymethyl)-1,2-benzisothiazol-3(2H)-one 1,1-dioxide], for which the Ki (usually the equilibrium dissociation constant of an inhibitor or competing ligand from its target) worked out at 0.47 nM.

`COc1cc(C(C)C)c2c(c1)S(=O)(=O)N(COc1cc(C)nn1-c1ccccc1)C2=O` [4 (b), 4-isopropyl-6-methoxy-2-(1-phenyl-3-methylpyrazol-5-yl-oxymethyl)-1,2-benzisothiazol-3(2H)-one 1,1-dioxide] had a Ki of 0.44 nM.

For the compound `COc1cc(C(C)C)c2c(c1)S(=O)(=O)N(COc1cc(-c3ccccc3)nn1-c1ccccc1)C2=O` [5 (b), 4-isopropyl-6-methoxy-2-(1,3-diphenylpyrazol-5-yl-oxymethyl)-1,2-benzisothiazol-3(2H)-one 1,1-dioxide], affinity was put at a Ki of 0.92 nM.

In turn, `COc1cc(C(C)C)c2c(c1)S(=O)(=O)N(COc1ccnn1-c1ccccc1)C2=O` [6 (c), 4-isopropyl-6-methoxy-2-(1-phenylpyrazol-5-yl-oxymethyl)-1,2-benzisothiazol-3(2H)-one 1,1-dioxide] returned a Ki of 0.145 nM.

For the compound `COc1cc(C(C)C)c2c(c1)S(=O)(=O)N(COc1cc(C(F)(F)F)nn1-c1ccc(Cl)cc1)C2=O` [8 (b), 4-isopropyl-6-methoxy-2-[1-(4-chlorophenyl)-3-trifluoromethylpyrazol-5-yl-oxymethyl]-1,2-benzisothiazol-3(2H)-one 1,1-dioxide], affinity was put at a Ki of 0.11 nM.

Take `COc1cc(C(C)C)c2c(c1)S(=O)(=O)N(COc1cc(C(F)(F)F)nn1-c1ccccn1)C2=O` [10 (b), 4-isopropyl-6-methoxy-2-[1-(2-pyridyl)-3-trifluoromethylpyrazol-5-yl-oxymethyl]-1,2-benzisothiazol-3(2H)-one 1,1-dioxide]: the Ki came to 0.024 nM.

In turn, `COc1cc(C(C)C)c2c(c1)S(=O)(=O)N(COc1cc(C(F)(F)F)nn1-c1ccc([N+](=O)[O-])cc1)C2=O` [11 (c), 4-isopropyl-6-methoxy-2-[1-(4-nitrophenyl)-3-trifluoromethylpyrazol-5-yl-oxymethyl)-1,2-benzisothiazol-3(2H)-one 1,1-dioxide] showed a Ki of 0.089 nM.

Turning to `COc1cc(C(C)C)c2c(c1)S(=O)(=O)N(COc1cc(-c3ccncc3)nn1-c1ccc(Cl)cc1)C2=O` [14 (c), 4-isopropyl-6-methoxy-2-[1-(4-chlorophenyl)-3-(4-pyridyl)pyrazol-5-yl-oxymethyl]-1,2-benzisothiazol-3(2H)-one 1,1-dioxide], the Ki stood at 0.19 nM.

Consider `COc1ccc(-n2nc(C(F)(F)F)cc2OCN2C(=O)c3c(C(C)C)cc(OC)cc3S2(=O)=O)cc1` [15 (b), 4-isopropyl-6-methoxy-2-[1-(4-methoxyphenyl)-3-trifluoromethylpyrazol-5-yl-oxymethyl)-1,2-benzisothiazol-3(2H)-one 1,1-dioxide], for which the Ki is 0.13 nM.

As to `COc1cc(C(C)C)c2c(c1)S(=O)(=O)N(COc1c(Cl)c(C(F)(F)F)nn1-c1ccccc1)C2=O` [16 (b), 4-isopropyl-6-methoxy-2-(1-phenyl-3-trifluoromethyl-4-chloropyrazol-5-yl-oxymethyl)-1,2-benzisothiazol-3(2H)-one 1,1-dioxide], the Ki is 1.6 nM.

For the compound `CC(C)c1cc(OCCCC(=O)O)cc2c1C(=O)N(COc1cc(C(F)(F)F)nn1-c1ccccc1)S2(=O)=O` [17 (b), 4-isopropyl-6-[3-(carboxy)propoxy]-2-(1-phenyl-3-trifluoromethylpyrazol-5-yl-oxymethyl)-1,2-benzisothiazol-3(2H)-one 1,1-dioxide], the Ki is 0.036 nM.

In the case of `CC(C)c1cc(OCC(C)(C)C(=O)O)cc2c1C(=O)N(COc1cc(C(F)(F)F)nn1-c1ccccc1)S2(=O)=O` [18 (b), 4-isopropyl-6-[2-(carboxy-2-methyl)propoxy]-2-(1-phenyl-3-trifluoromethylpyrazol-5-yl-oxymethyl)-1,2-benzisothiazol-3(2H)-one 1,1-dioxide], the Ki was found to be 0.22 nM.

On to `COc1cc(C(C)C)c2c(c1)S(=O)(=O)N(COc1cc(-c3c(F)c(F)c(F)c(F)c3F)nn1-c1ccccc1)C2=O` [19 (c)], for which the affinity corresponds to a Ki of 0.82 nM.

In the case of `COc1cc(C(C)C)c2c(c1)S(=O)(=O)N(COc1cc(C(F)(F)F)nn1-c1cccnc1)C2=O` [20 (c), 4-isopropyl-6-methoxy-2-[1-(3-lpyridyl)-3-(trifluoromethyl)pyrazol-5-yl-oxymethyl]-1,2-benzisothiazol-3(2H)-one 1,1-dioxide], affinity was put at a Ki of 0.037 nM.

As for `COc1cc(C(C)C)c2c(c1)S(=O)(=O)N(COc1cc(C(F)(F)F)nn1-c1ccncc1)C2=O` [22 (b), 4-isopropyl-6-methoxy-2-[1-(4-pyridyl)-3-trifluoromethylpyrazol-5-yl-oxymethyl]-1,2-benzisothiazol-3(2H)-one 1,1-dioxide], the affinity corresponds to a Ki of 0.18 nM.

Take `COc1cc(C(C)C)c2c(c1)S(=O)(=O)N(COc1cc(C(=O)NCCN3CCCC3)nn1-c1ccccc1)C2=O` [23 (b), 4-isopropyl-6-methoxy-2-[1-phenyl-3-(C(O)NH(CH2)2-1-pyrrolidinyl)pyrazol-5-yl-oxymethyl]-1,2-benzisothiazol-3(2H)-one 1,1-dioxide]: the affinity corresponds to a Ki of 0.065 nM.

As to `COc1cc(C(C)C)c2c(c1)S(=O)(=O)N(COc1cc(Cl)nn1-c1ccccc1)C2=O` [24 (c), 4-isopropyl-6-methoxy-2-(1-phenyl-3-chloropyrazol-5-yl-oxymethyl)-1,2-benzisothiazol-3(2H)-one 1,1-dioxide], the affinity, expressed as Ki, was 0.026 nM.

As for `COc1cc(C(C)C)c2c(c1)S(=O)(=O)N(COc1cc(C(F)(F)F)nn1-c1ccc3ccccc3n1)C2=O` [27 (b), 4-isopropyl-6-methoxy-2-[1-(2-quinolinyl)-3-(trifluoromethyl)pyrazol-5-yl-oxymethyl]-1,2-benzisothiazol-3(2H)-one 1,1-dioxide], the Ki came to 0.15 nM.

For `COc1cc(C(C)C)c2c(c1)S(=O)(=O)N(COc1cc(C(F)(F)F)nn1-c1ccc(Cl)cn1)C2=O` [28 (c), 4-isopropyl-6-methoxy-2-[1-(5-chloro-2-pyridyl)-3-(trifluoromethyl)pyrazol-5-yl-oxymethyl]-1,2-benzisothiazol-3(2H)-one 1,1-dioxide], the Ki was found to be 0.089 nM.

Take `CCN(CC)Cc1ccc(COc2cc(C(C)C)c3c(c2)S(=O)(=O)N(COc2cc(C(F)(F)F)nn2-c2ccccc2)C3=O)o1` [29 (b)]: the Ki worked out at 0.082 nM.

As to `COc1cc(C(C)C)c2c(c1)S(=O)(=O)N(COc1cc(C(F)(F)F)nn1-c1ccccc1Cl)C2=O` [30 (b), 4-isopropyl-6-methoxy-2-[1-(2-chlorophenyl)-3-trifluoromethylpyrazol-5-yl-oxymethyl]-1,2-benzisothiazol-3(2H)-one 1,1-dioxide], the Ki is 0.07 nM.

Consider `CCN(CC)CCN(C)C(=O)c1cc(OCN2C(=O)c3c(C(C)C)cc(OC)cc3S2(=O)=O)n(-c2ccccc2)n1` [31 (b)], for which the affinity, expressed as Ki, was 0.143 nM.

On to `COc1cc(C(C)C)c2c(c1)S(=O)(=O)N(COc1cc(C(F)(F)F)nn1-c1ccc(Cl)nn1)C2=O` [32 (c), 4-isopropyl-6-methoxy-2-[1-(3-chloropyridazin-6-yl)-3-trifluoromethylpyrazol-5-yl-oxymethyl]-1,2-benzisothiazol-3(2H)-one 1,1-dioxide], for which the Ki is 0.055 nM.
